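Where inhibition never reached the appropriate level, the endpoint shown equals the highest concentration tested. Otherwise, values were interpolated linearly from a five-concentration, 48-hour dose response in 96-well plates. GI50 marks 50% less growth. Definition used: TGI = concentration required for complete inhibition of growth.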
How the values were obtained:
Test in all cases: DTP human tumour cell line panel, 48 h
BT-549 breast = system: BT-549 breast
SK-MEL-2 melanoma = system: SK-MEL-2 melanoma
ACHN renal = system: ACHN renal
KM12 colon = system: KM12 colon
SK-MEL-28 melanoma = system: SK-MEL-28 melanoma
TK-10 renal = system: TK-10 renal
NCI/ADR-RES ovarian = system: NCI/ADR-RES ovarian
SW-620 colon = system: SW-620 colon
HCT-116 colon = system: HCT-116 colon
HCC-2998 colon = system: HCC-2998 colon
K-562 leukemia = system: K-562 leukemia
T-47D breast = system: T-47D breast
MDA-MB-435 = system: MDA-MB-435
RXF 393 renal = system: RXF 393 renal
UACC-257 melanoma = system: UACC-257 melanoma
MOLT-4 leukemia = system: MOLT-4 leukemia
NCI-H522 lung = system: NCI-H522 lung
OVCAR-4 ovarian = system: OVCAR-4 ovarian
SNB-75 CNS = system: SNB-75 CNS
PC-3 prostate = system: PC-3 prostate
MCF7 breast = system: MCF7 breast
NCI-H23 lung = system: NCI-H23 lung
786-0 renal = system: 786-0 renal
U251 CNS = system: U251 CNS
A549 NSCLC = system: A549 NSCLC
MDA-MB-231 breast = system: MDA-MB-231 breast
M14 melanoma = system: M14 melanoma
NCI-H460 lung = system: NCI-H460 lung
SF-539 CNS = system: SF-539 CNS
UACC-62 melanoma = system: UACC-62 melanoma
SK-MEL-5 melanoma = system: SK-MEL-5 melanoma
SK-OV-3 ovarian = system: SK-OV-3 ovarian
HOP-92 NSCLC = system: HOP-92 NSCLC
A498 renal = system: A498 renal
NCI-H226 lung = system: NCI-H226 lung
OVCAR-5 ovarian = system: OVCAR-5 ovarian
IGROV1 ovarian = system: IGROV1 ovarian
HS 578T breast = system: HS 578T breast
HOP-62 NSCLC = system: HOP-62 NSCLC
CAKI-1 renal = system: CAKI-1 renal
DU-145 prostate = system: DU-145 prostate
SR leukemia = system: SR leukemia
RPMI-8226 leukemia = system: RPMI-8226 leukemia
SN12C renal = system: SN12C renal
MALME-3M melanoma = system: MALME-3M melanoma
COLO 205 colon = system: COLO 205 colon
CCRF-CEM leukemia = system: CCRF-CEM leukemia
OVCAR-3 ovarian = system: OVCAR-3 ovarian
SF-295 CNS = system: SF-295 CNS
HL-60(TB) leukemia = system: HL-60(TB) leukemia
SF-268 CNS = system: SF-268 CNS
UO-31 renal = system: UO-31 renal
LOX IMVI melanoma = system: LOX IMVI melanoma
HT29 colon = system: HT29 colon
HCT-15 colon = system: HCT-15 colon
SNB-19 CNS = system: SNB-19 CNS
OVCAR-8 ovarian = system: OVCAR-8 ovarian

## O=C(c1ccc(F)c(F)c1Nc1ccc(I)cc1F)N1CC(O)([C@H]2CCCCN2)C1
BT-549 breast
  GI50: 10.9 µM
  TGI: 23.9 µM
SK-MEL-2 melanoma
  GI50: 0.135 µM
  TGI: 0.702 µM
ACHN renal
  GI50: 1.86 µM
  TGI: 15.8 µM
KM12 colon
  GI50: 1.12 µM
  TGI: 14 µM
SK-MEL-28 melanoma
  GI50: 0.0953 µM
  TGI: 3.45 µM
TK-10 renal
  GI50: 1.4 µM
  TGI: 15.3 µM
NCI/ADR-RES ovarian
  GI50: 8.74 µM
  TGI: 23 µM
SW-620 colon
  GI50: 0.34 µM
  TGI: 15 µM
HCT-116 colon
  GI50: 0.649 µM
  TGI: 11.7 µM
HCC-2998 colon
  GI50: 0.223 µM
  TGI: 2.62 µM
K-562 leukemia
  GI50: 3.53 µM
  TGI: 13.5 µM
T-47D breast
  GI50: 11.6 µM
  TGI: 26 µM
MDA-MB-435
  GI50: 0.161 µM
  TGI: 15.8 µM
RXF 393 renal
  GI50: 2.08 µM
  TGI: 8.76 µM
UACC-257 melanoma
  GI50: 0.08 µM
  TGI: 0.472 µM
MOLT-4 leukemia
  GI50: 8.46 µM
  TGI: 23.3 µM
NCI-H522 lung
  GI50: 8.01 µM
  TGI: 22.9 µM
OVCAR-4 ovarian
  GI50: 3.81 µM
  TGI: 17.7 µM
SNB-75 CNS
  GI50: 5.96 µM
  TGI: 20.5 µM
PC-3 prostate
  GI50: 9.68 µM
  TGI: 22.3 µM
MCF7 breast
  GI50: 6.56 µM
  TGI: 21.3 µM
NCI-H23 lung
  GI50: 1.09 µM
  TGI: 13.1 µM
786-0 renal
  GI50: 7.72 µM
  TGI: 21.7 µM
U251 CNS
  GI50: 3.5 µM
  TGI: 18.9 µM
A549 NSCLC
  GI50: 2.37 µM
  TGI: 18 µM
MDA-MB-231 breast
  GI50: 0.579 µM
  TGI: 5.26 µM
M14 melanoma
  GI50: 0.087 µM
  TGI: 2.52 µM
NCI-H460 lung
  GI50: 4.19 µM
  TGI: 20.2 µM
SF-539 CNS
  GI50: 10.2 µM
  TGI: 22.8 µM
UACC-62 melanoma
  GI50: 0.097 µM
  TGI: 2.92 µM
SK-MEL-5 melanoma
  GI50: 0.668 µM
  TGI: 6.06 µM
SK-OV-3 ovarian
  GI50: 8.15 µM
  TGI: 21.1 µM
HOP-92 NSCLC
  GI50: 0.406 µM
  TGI: 2.77 µM
A498 renal
  GI50: 1.11 µM
  TGI: 3.31 µM
NCI-H226 lung
  GI50: 4.8 µM
  TGI: 22.8 µM
OVCAR-5 ovarian
  GI50: 0.914 µM
  TGI: 15.5 µM
IGROV1 ovarian
  GI50: 1.43 µM
  TGI: 13.9 µM
HS 578T breast
  GI50: 9.74 µM
  TGI: 33.7 µM
HOP-62 NSCLC
  GI50: 1.97 µM
  TGI: 17.3 µM
CAKI-1 renal
  GI50: 6.28 µM
  TGI: 20.3 µM
DU-145 prostate
  GI50: 9.76 µM
  TGI: 22.3 µM
SR leukemia
  GI50: 3.94 µM
  TGI: 17.8 µM
RPMI-8226 leukemia
  GI50: 4.03 µM
  TGI: 20.8 µM
SN12C renal
  GI50: 3.96 µM
  TGI: 19.7 µM
MALME-3M melanoma
  GI50: 0.019 µM
  TGI: 0.0976 µM
COLO 205 colon
  GI50: 0.0735 µM
  TGI: 4.1 µM
CCRF-CEM leukemia
  GI50: 12.5 µM
  TGI: 29.4 µM
OVCAR-3 ovarian
  GI50: 12.1 µM
  TGI: 25.2 µM
SF-295 CNS
  GI50: 14.5 µM
  TGI: 28.9 µM
HL-60(TB) leukemia
  GI50: 0.173 µM
  TGI: 5.71 µM
SF-268 CNS
  GI50: 9.83 µM
  TGI: 23.4 µM
UO-31 renal
  GI50: 1.42 µM
  TGI: 13.9 µM
LOX IMVI melanoma
  GI50: 1.05 µM
  TGI: 5.49 µM
HT29 colon
  GI50: 0.0894 µM
  TGI: 10.9 µM
HCT-15 colon
  GI50: 4.81 µM
  TGI: 19.3 µM
SNB-19 CNS
  GI50: 8.08 µM
  TGI: 22.8 µM
OVCAR-8 ovarian
  GI50: 12 µM
  TGI: 26.9 µM
